Reference: patent US8653049B2, “Normuramyl glycopeptide compounds” (priority 2008, dated 2014)
Entries after “also recorded” stand apart in the source; their conditions may differ.

Legend:
[1] = rabbits, liposomal preparations s.c. 100 nmol/kg, 3 rabbits per group; passes if below 1.1° C.
Protocol: The test was conducted in an authorised laboratory, ITEST plus s.r.o., Bilé Vchýnice 10, 533 13 Vápno u Prelouce, Czech Republic, according to guide-lines CL 2005.
Rabbits (New Zeeland albino, 4-6 kg, 3 animals per group) were used for testing.
Liposomal preparations of muramyl glycopeptide derivatives were administered s.c. (100 nmol/kg). Empty liposomes were used as negative control and the liposomal as well as the free form of muramyl dipeptide (MDP) (25 μg/kg, corresponding to 50.7 nmol/kg) served as positive control. Temperature was measured in 1, 2, 3, 4,6 and 24 hour intervals.
Empty liposomes were used as negative control; and liposomal as well as free muramyl dipeptide (MDP) (50.7 nmol/kg) served as positive control. B30-norAbu-MDP (MT01, structure on page 5) served as additional control. Temperature was measured in 1, 2, 3, 4, 6 and 24 h intervals. The preparation passed the test if the Sum of ΔTmax remained below 1.1° C. (3 rabbits per group)

[2] = test system: tetanus toxoid (TaT) specific IgG antibodies; set-up: species or system BALB/c mice; conditions: mouse, in vivo, sc
[3] = test system: NK sensitive K562 cell line; test: NK cell cytotoxicity of human PBMC, 51Cr-release against K562; assay type: cell-based; conditions: for dose response of NK cell activity: range 0.1 μM-100 μM, FIG. 28
Protocol: Ex vivo effects of test compounds on NK cells were evaluated on human peripheral blood mononuclear cells (PBMC). The NK cell cytotoxicity of healthy donors in the presence or absence of test compounds was measured in standard 4 hrs ^51Cr-release assay against NK sensitive K562 cell line in effector (PBMC) to target (K562) ratio 16:1. Test compounds were added at a concentration of 10^−7 mol/ml.
Testing of compounds 23, 24, 32, 33, 40 and 41 for their capacity to induce cell-mediated cytotoxicity of human eripheral blood mononuclear cells (PBMCs) is shown in FIGS. 27 and 28. All donors were healthy. […] The cytotoxicity of untreated controls (30.5%) was renormalized to 100%.

[4] = test system: myelin basic protein induced EAE; test: Experimental allergic encephalomyelitis (EAE), Th1 adjuvant activity; assay type: in vivo, guinea pigs; conditions: for Th1 stimulation (EAE): guinea pigs sensitized with bovine MBP in IFA + compound, FIG. 31
[5] = test system: GM-CFC progenitors in bone marrow; test: GM-CFC recovery, test compounds after sub-lethal irradiation; assay type: in vivo, ICR/CD-1 mice; conditions: s.c. 100 nmol 24 h after 6 Gy, FIG. 36
Protocol: Institite of Cancer Research (ICR/CD-1) mice (female, age of 3 months, 3-4 per group) were stimulated by s.c. administration of test compounds (volume of 200 μl, 100 nmol per dose) 24 h before sublethal γ-irradiation (6 Gy, ^60Co γray source Chisostat, Chirana Ltd., Czech Republic, at a dose of 0.285 Gy/min.). Mice were sacrified at day 13 and recovery of GM-CFC in femour was assayed by counting of colonies (CFC) formed after cultivation in medium. Non-irradiated mice were used as control for normal GM-CFC count in femour. PBS and empty liposomes were used as controls for spontaneous recovery. Liposomal MDP was used as reference standard.
The following parameters of hemopoiesis were evaluated: • a) Blood leukocyte counts and bone marrow cellularity. Blood leukocytes (samples of blood drawn from an incision of the tail vein) and nucleated cell elements of the femoral bone marrow (femoral diaphyses flushed with saline) were estimated by means of Coulter Counter (Model ZN, Coulter Electronics). • b) Colony-forming cells in spleen. Endogenous spleen colony-forming units (E-CFUs) were measured on day 9 post the whole-body irradiation with 6.5 Gy (5 mice per group) according to Till and McCulloch. • c) GM-CFC progenitors in bone marrow. Femoral bone marrow cells were obtained from mice by flushing the femour with sterile IMDM medium. Harvested cells were calculated and diluted to 1.5×10^5 cells/ml and plated in triplicate in a semisolid environment created by plasma clot (Iscovess modification of Dulbecco's medium, 20% of fetal calf serum, 10% of colony-stimulating factor, 10% of citrate plasma, and CaCl2 1.5 mg/ml). The cultures were incubated for 7 days at 37° C. in 5% CO2. Colonies of at least 50 cells were scored at 40× magnification.
The method is exactly as described above except that the test compounds (volume of 200 μl, 100 nmol per dose) were administered 24 h after sublethal γ-irradiation (6 Gy).

Salmonella enteritidis = test: Stimulation of innate immunity against Salmonella Enteritidis; conditions: for Day 6 Intest.: clear/infected/dead / Day 6 Liver: clear/infected/dead / Day 6 Lungs: clear/infected/dead / Day 6 Spleen: clear/infected/dead / Day 12 Intest.: clear/infected/dead / Day 12 Liver: clear/infected/dead / Day 12 Lungs: clear/infected/dead / Day 12 Spleen: clear/infected/dead: liposomal, 20 nmol per dose p.o. 72 and 24 h before infection (LD50), 5 mice
[6] = test system: Friend leukemia virus (FLV); test: Friend leukemia virus infection: survival, TER-119+ cells, spleen; conditions: for survival, late phase (days 55 and 59), long-term / survival, early phase (day 43): 10 μmol i.p., non-liposomal, FIG. 23; for survival, late phase (days 55 and 59), long-term: control 0%; for survival, early phase (day 43): saline control 82%; for clonal expansion of TER-119+ erythroleukaemia cells in spleen / spleen size (weight): day 16; for clonal expansion of TER-119+ erythroleukaemia cells in spleen: FIG. 24; for spleen size (weight): FIG. 25
[7] = test system: r-hsp90 (Candida albicans hsp90) specific IgG antibodies; test: Proteoliposome vaccine against C. albicans hsp90: antibody (humoral) response, ELISA; assay type: in vivo, BALB/c mice; conditions: Experiment 12.2; liposomal compound (5%) + Ni-HSP90, boost day 14; FIG. 13
Protocol: (§1) Proteoliposomes were prepared by coupling recombinant hsp90 antigen (r-hsp90, 6×HISTag) via a metal chelating lipid to liposomes containing muramyl glycopeptide derivatives as adjuvant component. BALB/c […] mice 4 to 5 weeks old (female 20±2 g, 5 animal per group) were immunized by the intradermal route either with 20 μg of free or liposomal r-hsp90 (volume of 60 μl) either with or without L18-norAbu-MDP and boosted 21 days later by the same composition of experimental vaccine. FCA was used as positive control r-hsp90. Liposomal vaccine composition 20 μg of rHSP90 antigen, 5% metallochelating lipid, 5% particular MT analogue, 90% phospolipids.
Blood samples were collected from the tail vein into heparinised capillary PCV tubes. After centrifugation, the upper part of the tube, containing […] blood serum, was cut off, thrown into […] diluting solution and thoroughly shaken. Thus, a basic dilution of 1:33 was obtained. The pre-diluted sera were kept at −20° C. Blood samples were collected before the first immunization, 2 weeks thereafter and subsequently at weekly intervals up to the 4th week after the second immunisation. Specific IgG antibodies in blood serum samples were determined by the standard indirect ELISA procedure. The data obtained were processed statistically using the non-parametric Mann-Whitney U-test.
Proteoliposomes with muramyl glycopeptide derivatives were prepared as described above, but the boost was carried out already after 14 days. The liposomal vaccine composition was as for Experiment Set 1: 20 μg of rHSP90 antigen, 5% metallochelating lipid, 5% particular MT analogue, 90% phospolipids.
Controls: Aluminum hydroxide (AlOH) and Freund complete adjuvans (FCA) were used as positive controls. PBS with empty liposomes was used as negative control (control). Humoral response was tested at day 14 after vaccination (post priming) and at day 20 after vaccination (post booster). Antibody titres were wer assayed by ELISA.

[8] = test system: IFN-γ production in splenocytes stimulated by rHSP90; test: Proteoliposome vaccine against C. albicans hsp90: cellular response (IFN-γ in splenocytes stimulated by rHSP90); assay type: in vivo, BALB/c mice; conditions: Experiment 12.3; liposomal compound (5%) + Ni-HSP90, day 20; FIG. 14
Protocol: as §1
Production of INF-γ was mesured by standard ELISPOT assay (R&D, USA). Immunised mice were sacrified 4 weeks after booster imunisation and splenocytes were isolated, and stimulated by r-hsp90 (50 μg/ml) and spots were counted.
Proteoliposomes with muramyl glycopeptide derivatives were prepared as described above. Experimental conditions were as for Experiment 12.2.
Cell mediated immune response against rHSP90 antigen formulated in liposomal experimental vaccine was tested at day 20 (6 days after booster). Mice were sacrificed, splenocytes were purified and production of IFN-γ in splenocytes stimulated by rHSP90 was assayed by flow cytometry.

[9] = Survival after lethal irradiation (10 Gy); assay type: in vivo, mice (strain ICR); conditions: 200 nmol s.c. 24 h before 10 Gy; FIG. 37
Protocol: Preparations (200 nmol of active substance) were applied to mice (strain ICR, female, 3 months of age, 10 mice per group) by s.c. route 24 h before irradiation (radiation dose of 10 Gy from a ^60Co gamma-ray source at a dose rate of 0.285 Gy/min). PBS and empty liposome served as negative controls, free and liposomal muramyl dipeptide (MDP) served as positive controls.

[10] = test system: NK-sensitive YAC1 target cells; test: NK cell-mediated cytotoxicity of spleen mononuclear cells, 51Cr-release against YAC1; conditions: FLV-inoculated mice, day 16, 18 h incubation with YAC1; FIG. 26

Structure (SMILES)	+ΔTmax (Sum of ΔTmax) [1]	dose response of NK cell activity [3]	Th1 stimulation (EAE) [4]	Day 6 Intest.: clear/infected/dead (Salmonella enteritidis)	Day 6 Liver: clear/infected/dead (Salmonella enteritidis)	Day 6 Lungs: clear/infected/dead (Salmonella enteritidis)	Day 6 Spleen: clear/infected/dead (Salmonella enteritidis)	Day 12 Intest.: clear/infected/dead (Salmonella enteritidis)	Day 12 Liver: clear/infected/dead (Salmonella enteritidis)	Day 12 Lungs: clear/infected/dead (Salmonella enteritidis)	Day 12 Spleen: clear/infected/dead (Salmonella enteritidis)	survival, early phase (day 43) [6]	clonal expansion of TER-119+ erythroleukaemia cells in spleen [6]	spleen size (weight) [6]	other results
CCCCCCCCCCCCCCCCCC(=O)N[C@H]1[C@H](O[C@H]2[C@H](OCC(=O)N[C@@H](CC)C(=O)N[C@H](CCC(=O)O)C(N)=O)[C@@H](NC(C)=O)C(O)O[C@@H]2CO)O[C@H](CO)[C@@H](O)[C@@H]1O (stereo partly drawn) [Compound 23, N-[2-O-(2-deoxy-2-stearoylamino-β-D-glucopyranosyl-(1→4)-2-acetamido-2,3-dideoxy-α-D-glucopyranosid-3-yl)-glycoloyl]-L-α-aminobutanoyl-D-isoglutamine]	0.7 °C	positive dose response	superior to MDP and GMDP as Th1 adjuvants	2/3/0	0/5/0	1/4/0	0/5/0	1/2/2	1/2/2	1/2/2	1/2/2	survival not worse than control at day 43	positive effect on clonal expansion	increased spleen size	anti-TaT antibody response [2]: did not show a significant antibody response; anti-TaT antibody response (adjuvant activity) [2]: Strong adjuvant activity; Positive animals (%) (incidence of EAE) ([4]; 50 μg myelin basic protein + 1 mg test compound in FIA, footpads, up to day 21, FCA positive control): 86%; GM-CFC progenitor cells in bone marrow [5]: strongest effect; GM-CFC progenitor cells in bone marrow ([5]; listed as compound 23): strongest performers; survival, late phase (days 55 and 59), long-term [6]: clearly worse at day 55; survival, early phase (day 43) ([6]; listed as compound 23): slightly better than saline control; % of survivors on day 45 ([6]; 52 infected mice, non-liposomal compound i.p. day −10 and −3, infected non-treated 23): 45%
CCCCCCCCCCCCCCC(CCCCCCCCCCCCCC)C(=O)N[C@H]1[C@H](O[C@H]2[C@H](OCC(=O)N[C@@H](CC)C(=O)N[C@H](CCC(=O)O)C(N)=O)[C@@H](NC(C)=O)C(O)O[C@@H]2CO)O[C@H](CO)[C@@H](O)[C@@H]1O (stereo partly drawn) [Compound 24, N-{2-O-[2-deoxy-2-(2-tetradecyl-hexadecanoylamino)-β-D-gluco-pyranosyl-(1→4)-2-acetamido-2,3-dideoxy-α-D-glucopyranosid-3-yl]glycoloyl}-L-α-aminobutanoyl-D-isoglutamine]	0.7 °C	negative dose response	strongest effect on Th1 stimulation	4/1/0	3/2/0	4/1/0	3/2/0	3/1/1	3/1/1	4/0/1	3/1/1	survival rate worse than control	pronounced opposite effect	spleen size slightly lower than the control	antibody response to r-hsp90 proteoliposomes [7]: weak to non-existent antibody responses; also recorded: virtually no Th2-type response; cell-mediated response to r-hsp90 proteoliposomes [8]: strong Th1-type responses; lag time to reach full NK stimulating activity ([3]; no vs 18 h pre-incubation): most pronounced; survival of lethally irradiated mice [9]: smaller survival benefit; protective effect / survival rate in S. Enteritidis infection (Salmonella enteritidis; 0 or 1 case of death by day 12): good protective effects; survival, late phase (days 55 and 59), long-term ([6]; listed as substance 24): 30%; NK cell activity (cell-mediated cytotoxicity of SMCs) [10]: inhibitory effect
